How the values were obtained:
velvetleaf = assay: Test B pre/postemergence velvetleaf; assay type: in vivo, Abutilon theophrasti
Procedure, shortened: (§1)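 Test chemicals in a non-phytotoxic solvent mixture with surfactant were sprayed preemergence onto planted seeds and postemergence onto plants 2 to 18 cm tall (1- to 4-leaf stage). After twelve to sixteen days in a greenhouse, injury was visually rated against untreated controls from 0 (no effect) to 10 (complete control).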

surinam grass = assay: Test B pre/postemergence surinam grass; assay type: in vivo, Brachiaria decumbens
Procedure, shortened: as §1

sugar beet = assay: Test B pre/postemergence sugar beet; assay type: in vivo, Beta vulgaris
Procedure, shortened: as §1

purple nutsedge = assay: Test B pre/postemergence purple nutsedge; assay type: in vivo, Cyperus rotundus
Procedure, shortened: as §1

duck salad = assay: Test B flood test duck salad; assay type: in vivo, Heteranthera limosa; conditions: Pre-emergence
Procedure, shortened: (§2)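 Flood test on plants grown to the 2-leaf stage; treated plants kept in greenhouse twelve to sixteen days, then visually rated against controls on a 0 (no effect) to 10 (complete control) scale.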

bamyardgrass = assay: Test B flood test barnyardgrass; assay type: in vivo, Echinochloa crus-galli; conditions: Pre-emergence
Procedure, shortened: as §2

giant foxtail = assay: Test B pre/postemergence giant foxtail; assay type: in vivo, Setaria faberii
Procedure, shortened: as §1

morningglory = assay: Test B pre/postemergence morningglory; assay type: in vivo, Ipomoea hederacea
Procedure, shortened: as §1

crabgrass = assay: Test B pre/postemergence crabgrass; assay type: in vivo, Digitaria sanguinalis
Procedure, shortened: as §1

wheat = assay: Test B pre/postemergence wheat; assay type: in vivo, Triticum aestivum
Procedure, shortened: as §1

bedstraw = assay: Test B pre/postemergence bedstraw; assay type: in vivo, Galium aparine
Procedure, shortened: as §1

pigweed = assay: Test B pre/postemergence pigweed; assay type: in vivo, Amaranthus retroflexus
Procedure, shortened: as §1

cocklebur = assay: Test B pre/postemergence cocklebur; assay type: in vivo, Xanthium strumarium
Procedure, shortened: as §1

soybean = assay: Test B pre/postemergence soybean; assay type: in vivo, Glycine max
Procedure, shortened: as §1

rape = assay: Test B pre/postemergence rape; assay type: in vivo, Brassica napus
Procedure, shortened: as §1

smallflower flatsedge = assay: Test B flood test smallflower flatsedge; assay type: in vivo, Cyperus difformis; conditions: Pre-emergence
Procedure, shortened: as §2

wild oat = assay: Test B pre/postemergence wild oat; assay type: in vivo, Avena fatua
Procedure, shortened: as §1

rice = assay: Test B flood test rice; assay type: in vivo, Oryza sativa; conditions: Pre-emergence
Procedure, shortened: as §2

blackgrass = assay: Test B pre/postemergence blackgrass; assay type: in vivo, Alopecurus myosuroides
Procedure, shortened: as §1

corn = assay: Test B pre/postemergence corn; assay type: in vivo, Zea mays
Procedure, shortened: as §1

[1] = Preemergence, Rate 31 g/ha, visual rating, scale 0 to 10 (0 no effect, 10 complete control)
[2] = Preemergence, Rate 62 g/ha, scale of 0 to 10 where 0 is no effect and 10 is complete control
[3] = Preemergence, Rate 250 g/ha, scale of 0 to 10 where 0 is no effect and 10 is complete control
[4] = Rate 62 g/ha, Postemergence, scale of 0 to 10 where 0 is no effect and 10 is complete control
[5] = Rate 125 g/ha, Preemergence, scale of 0 to 10 where 0 is no effect and 10 is complete control
[6] = Rate 31 g/ha, Postemergence, scale 0 to 10
[7] = Rate 1000 g/ha, scale 0 to 10 (0 no effect, 10 complete control)
[8] = Rate 125 g/ha, flood test species, scale 0 to 10 where 0 is no effect and 10 is complete control
[9] = Rate 250 g/ha, flood-test species, scale 0 to 10, 0 is no effect, 10 is complete control
[10] = Rate 500 g/ha, flood test species, scale 0 to 10 (0 no effect, 10 complete control)
[11] = Rate 125 g/ha, Postemergence, scale 0 to 10

CCOC(=O)C(C)N(C(=O)n1oc(=O)n(-c2c(C)cccc2C)c1=O)c1ccc(F)cc1 (stereo not drawn) [Compound 244]
0: Velvetleaf plant response rating (velvetleaf; [1]) | Velvetleaf plant response rating (velvetleaf; [2]) | Velvetleaf plant response rating (velvetleaf; [3]) | Velvetleaf plant response rating (velvetleaf; [4]) | Velvetleaf plant response rating (velvetleaf; [5]) | B. signalgrass plant response rating (surinam grass; [1]) | B. signalgrass plant response rating (surinam grass; [2]) | B. signalgrass plant response rating (surinam grass; [3]) | B. signalgrass plant response rating (surinam grass; [6]) | B. signalgrass plant response rating (surinam grass; [4]) | B. signalgrass plant response rating (surinam grass; Rate 125 g/ha, Postemergence, scale 0 (no effect) to 10 (complete control)) | B. signalgrass plant response rating (surinam grass; [5]) | Plant response rating (0 to 10; 0 is no effect, 10 is complete control), B. signalgrass (surinam grass; Rate 250 g/ha, Postemergence) | Sugarbeets plant response rating (sugar beet; [1]) | Sugarbeets plant response rating (sugar beet; [2]) | Sugarbeets plant response rating (sugar beet; [3]) | Sugarbeets plant response rating (sugar beet; [4]) | Sugarbeets plant response rating (sugar beet; [5]) | Nutsedge plant response rating (purple nutsedge; [1]) | Nutsedge plant response rating (purple nutsedge; [2]) | Nutsedge plant response rating (purple nutsedge; [3]) | Nutsedge plant response rating (purple nutsedge; [6]) | Nutsedge plant response rating (purple nutsedge; [4]) | Nutsedge plant response rating (purple nutsedge; [5]) | Plant response rating (0 to 10; 0 is no effect, 10 is complete control), Nutsedge (purple nutsedge; Rate 250 g/ha, Postemergence) | Ducksalad plant response rating (duck salad; [7]) | Ducksalad plant response rating (duck salad; [8]) | Ducksalad plant response rating (duck salad; [9]) | Ducksalad plant response rating (duck salad; [10]) | Barnyardgrass plant response rating (bamyardgrass; [7]) | Barnyardgrass plant response rating (bamyardgrass; [8]) | Barnyardgrass plant response rating (bamyardgrass; [9]) | Barnyardgrass plant response rating (bamyardgrass; [10]) | Giant foxtail plant response rating (giant foxtail; [1]) | Giant foxtail plant response rating (giant foxtail; [2]) | Giant foxtail plant response rating (giant foxtail; [3]) | Giant foxtail plant response rating (giant foxtail; [6]) | Giant foxtail plant response rating (giant foxtail; [4]) | Giant foxtail plant response rating (giant foxtail; [5]) | Plant response rating (0 to 10; 0 is no effect, 10 is complete control), Giant foxtail (giant foxtail; Rate 250 g/ha, Postemergence) | Morningglory plant response rating (morningglory; [1]) | Morningglory plant response rating (morningglory; [2]) | Morningglory plant response rating (morningglory; [3]) | Morningglory plant response rating (morningglory; [6]) | Morningglory plant response rating (morningglory; [4]) | Morningglory plant response rating (morningglory; [5]) | Plant response rating (0 to 10; 0 is no effect, 10 is complete control), Morningglory (morningglory; Rate 250 g/ha, Postemergence) | Crabgrass plant response rating (crabgrass; [1]) | Crabgrass plant response rating (crabgrass; [2]) | Crabgrass plant response rating (crabgrass; [3]) | Crabgrass plant response rating (crabgrass; [6]) | Crabgrass plant response rating (crabgrass; [4]) | Crabgrass plant response rating (crabgrass; [5]) | Plant response rating (0 to 10; 0 is no effect, 10 is complete control), Crabgrass (crabgrass; Rate 250 g/ha, Postemergence) | Wheat plant response rating (wheat; [1]) | Wheat plant response rating (wheat; [2]) | Wheat plant response rating (wheat; [3]) | Wheat plant response rating (wheat; [4]) | Wheat plant response rating (wheat; [5]) | Bedstraw plant response rating (bedstraw; [1]) | Bedstraw plant response rating (bedstraw; [2]) | Bedstraw plant response rating (bedstraw; [3]) | Bedstraw plant response rating (bedstraw; [6]) | Bedstraw plant response rating (bedstraw; [4]) | Bedstraw plant response rating (bedstraw; [11]) | Bedstraw plant response rating (bedstraw; [5]) | Plant response rating (0 to 10; 0 is no effect, 10 is complete control), Bedstraw (bedstraw; Rate 250 g/ha, Postemergence) | Redroot pigweed plant response rating (pigweed; [1]) | Redroot pigweed plant response rating (pigweed; [2]) | Redroot pigweed plant response rating (pigweed; [3]) | Redroot pigweed plant response rating (pigweed; [6]) | Redroot pigweed plant response rating (pigweed; [4]) | Redroot pigweed plant response rating (pigweed; [5]) | Plant response rating (0 to 10; 0 is no effect, 10 is complete control), Redroot pigweed (pigweed; Rate 250 g/ha, Postemergence) | Cocklebur plant response rating (cocklebur; [1]) | Cocklebur plant response rating (cocklebur; [2]) | Cocklebur plant response rating (cocklebur; [3]) | Cocklebur plant response rating (cocklebur; [6]) | Cocklebur plant response rating (cocklebur; [4]) | Cocklebur plant response rating (cocklebur; [11]) | Cocklebur plant response rating (cocklebur; [5]) | Plant response rating (0 to 10; 0 is no effect, 10 is complete control), Cocklebur (cocklebur; Rate 250 g/ha, Postemergence) | Soybean plant response rating (soybean; [1]) | Soybean plant response rating (soybean; [2]) | Soybean plant response rating (soybean; [3]) | Soybean plant response rating (soybean; [4]) | Soybean plant response rating (soybean; [5]) | Rape plant response rating (rape; [1]) | Rape plant response rating (rape; [2]) | Rape plant response rating (rape; [3]) | Rape plant response rating (rape; [6]) | Rape plant response rating (rape; [4]) | Rape plant response rating (rape; [5]) | Plant response rating (0 to 10; 0 is no effect, 10 is complete control), Rape (rape; Rate 250 g/ha, Postemergence) | S. Flatsedge plant response rating (smallflower flatsedge; [7]) | S. Flatsedge plant response rating (smallflower flatsedge; [8]) | S. Flatsedge plant response rating (smallflower flatsedge; [9]) | S. Flatsedge plant response rating (smallflower flatsedge; [10]) | Wild oats plant response rating (wild oat; [1]) | Wild oats plant response rating (wild oat; [2]) | Wild oats plant response rating (wild oat; [3]) | Wild oats plant response rating (wild oat; [4]) | Wild oats plant response rating (wild oat; [5]) | Rice plant response rating (rice; [7]) | Rice plant response rating (rice; [8]) | Rice plant response rating (rice; [9]) | Rice plant response rating (rice; [10]) | Blackgrass plant response rating (blackgrass; [1]) | Blackgrass plant response rating (blackgrass; [2]) | Blackgrass plant response rating (blackgrass; [3]) | Blackgrass plant response rating (blackgrass; [6]) | Blackgrass plant response rating (blackgrass; [4]) | Blackgrass plant response rating (blackgrass; [11]) | Blackgrass plant response rating (blackgrass; [5]) | Plant response rating (0 to 10; 0 is no effect, 10 is complete control), Blackgrass (blackgrass; Rate 250 g/ha, Postemergence) | Corn plant response rating (corn; [1]) | Corn plant response rating (corn; [2]) | Corn plant response rating (corn; [3]) | Corn plant response rating (corn; [6]) | Corn plant response rating (corn; [4]) | Corn plant response rating (corn; [11]) | Corn plant response rating (corn; [5]) | Plant response rating (0 to 10; 0 is no effect, 10 is complete control), Corn (corn; Rate 250 g/ha, Postemergence)

Source: patent US6737383B1, “Herbicidal oxadiazolidines” (priority 1999, dated 2004)
